Laboratory results as given in ChEMBL document CHEMBL4308846, “How Selective Are Pharmacological Inhibitors of Cell-Cycle-Regulating Cyclin-Dependent Kinases?” (J Med Chem, 2018).
Calls of active or inactive are those of the source. The rule behind the calls is not given here.

Columns and labels:
CDK7/Cyclin H/MNAT1 = CDK7/Cyclin H/MNAT1 (Homo sapiens, UniProt P50613); test: biochemical
[1] = biological target: Cyclin-dependent kinase 5/CDK5 activator 1 (Homo sapiens, UniProt Q00535); test: biochemical
CDK9/cyclin T1 = CDK9/cyclin T1 (Homo sapiens, UniProt P50750); test: biochemical
HCT-116 [2] = test: Induction of cell cycle arrest in human HCT116 cells assessed as reduction in accumulation at G1 phase at 1.7 to 19.8 uM after 24 hrs by propidium iodide-staining based flow cytometry; type: functional
HCT-116 [3] = test: Induction of cell cycle arrest in human HCT116 cells assessed as accumulation at G2/M phase at 1.7 to 19.8 uM after 24 hrs by propidium iodide-staining based flow cytometry; type: functional
[4] = biological target: Cyclin-dependent kinase 1/cyclin B1 (Homo sapiens, UniProt P06493); test: biochemical
[5] = biological target: Cyclin-dependent kinase 4/cyclin D1 (Homo sapiens, UniProt P11802); test: biochemical
HCT-116 [6] = test: Induction of cell cycle arrest in human HCT116 cells assessed as accumulation at G2/M phase at 19.8 to 100 uM after 24 hrs by propidium iodide-staining based flow cytometry relative to control; type: functional
[7] = biological target: Cyclin-dependent kinase 2/cyclin E1 (Homo sapiens, UniProt P24941); test: biochemical
CDK2/Cyclin A2 = CDK2/Cyclin A2 (Homo sapiens, UniProt P24941)
HCT-116 [8] = test: Induction of cell cycle arrest in CDK2 knocked out human HCT116 cells assessed as accumulation at G2/M phase at 100 to 500 nM after 24 hrs by propidium iodide-staining based flow cytometry; type: functional
[9] = biological target: T1, Cyclin-dependent kinase 5/CDK5 activator 1 (Homo sapiens) (UniProt Q00535+Q15078); test: Inhibition of CDK5/p25 in human HCT116 cells assessed as induction of dephosphorylation of FAK at Ser732 residue at 250 to 500 nM after 24 hrs by Western blot analysis; type: cell-based
HCT-116 [10] = test: Induction of cell cycle arrest in human HCT116 cells assessed as accumulation at G2/M phase at 0.05 to 0.5 uM after 24 hrs by propidium iodide-staining based flow cytometry relative to control; type: functional
[11] = biological target: Cyclin-dependent kinase 7 (Homo sapiens) (UniProt P50613); test: Inhibition of CDK7 in human HCT116 cells assessed as induction of dephosphorylation of RNA polymerase 2 S2/S5 residues at 250 to 500 nM after 24 hrs by Western blot analysis; type: cell-based
[12] = biological target: Cyclin-dependent kinase 9 (Homo sapiens) (UniProt P50750); test: Inhibition of CDK9 in human HCT116 cells assessed as induction of dephosphorylation of RNA polymerase 2 S2/S5 residues at 250 to 500 nM after 24 hrs by Western blot analysis; type: cell-based
HCT-116 [13] = test: Induction of cell cycle arrest in human HCT116 cells assessed as accumulation at G2/M phase at 0.15 to […] after 24 hrs by propidium iodide-staining based flow cytometry relative to control; type: functional
HCT-116 [14] = test: Induction of cell cycle arrest in human HCT116 cells assessed as reduction in accumulation at G1 phase at 0.15 to […] after 24 hrs by propidium iodide-staining based flow cytometry; type: functional
HCT-116 [15] = test: Induction of cell cycle arrest in human HCT116 cells assessed as reduction in accumulation at G1 phase at 0.5 to 5.9 uM after 24 hrs by propidium iodide-staining based flow cytometry; type: functional; parameters: scale not given: the % may be the effect or the level left
[16] = biological target: Cyclin-dependent kinase 6 (Homo sapiens) (UniProt Q00534); test: Inhibition of CDK6 (unknown origin) at 10 uM
[17] = biological target: Cyclin-dependent kinase 4 (Homo sapiens) (UniProt P11802); test: Inhibition of CDK4 (unknown origin) at 10 uM
HCT-116 [18] = test: Induction of cell cycle arrest in human HCT116 cells at 19.8 to 100 uM after 24 hrs by propidium iodide-staining based flow cytometry relative to control; type: functional
HCT-116 [19] = test: Induction of cell cycle arrest in human HCT116 cells assessed as accumulation at G2/M phase after 24 hrs by propidium iodide-staining based flow cytometry; type: functional
HCT-116 [20] = test: Induction of cell cycle arrest in human HCT116 cells assessed as accumulation at G2/M phase 1.25 to 20 uM after 24 hrs by propidium iodide-staining based flow cytometry relative to control; type: functional
HCT-116 [21] = test: Induction of cell cycle arrest in human HCT116 cells assessed as reduction in accumulation at G1 phase 1.25 to 20 uM after 24 hrs by propidium iodide-staining based flow cytometry; type: functional
HCT-116 [22] = test: Induction of cell cycle arrest in human HCT116 cells assessed as accumulation at G2/M phase at 3.9 to 19.8 uM after 24 hrs by propidium iodide-staining based flow cytometry relative to control; type: functional
HCT-116 [23] = test: Induction of cell cycle arrest in CDK2 knocked out human HCT116 cells assessed as accumulation at G2/M phase at 0.5 to 3.9 after 24 hrs by propidium iodide-staining based flow cytometry; type: functional
HCT-116 [24] = test: Induction of cell cycle arrest in human HCT116 cells assessed as reduction in accumulation at G1 phase at 8.8 to 100 uM after 24 hrs by propidium iodide-staining based flow cytometry; type: functional; parameters: scale not given: the % may be the effect or the level left
HCT-116 [25] = test: Induction of cell cycle arrest in CDK2 knocked out human HCT116 cells assessed as accumulation at G2/M phase at 0.8 to 5.9 after 24 hrs by propidium iodide-staining based flow cytometry; type: functional
HCT-116 [26] = test: Induction of cell cycle arrest in CDK2 knocked out human HCT116 cells assessed as accumulation at G2/M phase at 13.2 to […] after 24 hrs by propidium iodide-staining based flow cytometry; type: functional
[27] = biological target: T1, Cyclin-dependent kinase 5/CDK5 activator 1 (Homo sapiens); test: Inhibition of CDK5/p25 in human HCT116 cells assessed as induction of dephosphorylation of FAK at Ser732 residue at 10 to 50 uM after 24 hrs by Western blot analysis; type: cell-based
HCT-116 [28] = test: Induction of cell cycle arrest in human HCT116 cells assessed as reduction in accumulation at G1 phase 19.8 to 100 uM after 24 hrs by propidium iodide-staining based flow cytometry; type: functional
HCT-116 [29] = test: Induction of cell cycle arrest in CDK2 knocked out human HCT116 cells assessed as accumulation at G2/M phase at 5 to 20 uM after 24 hrs by propidium iodide-staining based flow cytometry; type: functional
HCT-116 [30] = test: Induction of cell cycle arrest in human HCT116 cells assessed as accumulation at G2/M phase at 5 to 20 uM after 24 hrs by propidium iodide-staining based flow cytometry; type: functional
Aurora kinase A = biological target: T2, Aurora kinase A (Homo sapiens, UniProt O14965); test: Inhibition of GST-tagged AURORA A (unknown origin) expressed in baculovirus infected Sf9 cells using MBP as substrate
T2 sequence (O14965 whole entry): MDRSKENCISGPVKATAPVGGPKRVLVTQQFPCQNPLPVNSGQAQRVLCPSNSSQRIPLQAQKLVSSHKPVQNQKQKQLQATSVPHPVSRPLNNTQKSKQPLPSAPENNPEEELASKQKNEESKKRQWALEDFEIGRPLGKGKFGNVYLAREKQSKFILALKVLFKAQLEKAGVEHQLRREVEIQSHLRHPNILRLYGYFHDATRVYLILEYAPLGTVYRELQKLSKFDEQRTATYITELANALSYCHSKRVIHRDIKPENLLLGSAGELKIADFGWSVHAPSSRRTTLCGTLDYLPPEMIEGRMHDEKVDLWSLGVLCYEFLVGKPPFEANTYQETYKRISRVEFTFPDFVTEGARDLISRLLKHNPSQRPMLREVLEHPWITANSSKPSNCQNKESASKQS

Aurora kinase B = Aurora kinase B (Homo sapiens, UniProt Q96GD4); test: biochemical
HCT-116 [31] = test: Induction of cell cycle arrest in human HCT116 cells assessed as accumulation at G2/M phase at 2.6 to 19.8 uM after 24 hrs by propidium iodide-staining based flow cytometry relative to control; type: functional
HCT-116 [32] = test: Induction of cell cycle arrest in human HCT116 cells assessed as reduction in accumulation at G1 phase 2.6 to 29.6 uM after 24 hrs by propidium iodide-staining based flow cytometry; type: functional
HCT-116 [33] = test: Induction of cell cycle arrest in human HCT116 cells assessed as accumulation at G2/M phase 2.6 to 29.6 uM after 24 hrs by propidium iodide-staining based flow cytometry relative to control; type: functional

Sequence of CDK7/Cyclin H/MNAT1 (P51946 whole entry): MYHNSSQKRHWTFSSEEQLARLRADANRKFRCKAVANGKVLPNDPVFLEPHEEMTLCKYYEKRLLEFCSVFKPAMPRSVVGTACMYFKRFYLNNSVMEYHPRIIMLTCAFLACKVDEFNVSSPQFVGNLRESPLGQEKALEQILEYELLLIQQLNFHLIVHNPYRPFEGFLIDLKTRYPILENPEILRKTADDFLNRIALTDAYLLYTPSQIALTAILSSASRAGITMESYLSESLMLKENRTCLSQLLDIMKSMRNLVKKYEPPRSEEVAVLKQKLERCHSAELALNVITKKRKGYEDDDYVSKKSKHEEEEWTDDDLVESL
Sequence of CDK7/Cyclin H/MNAT1 (P50613 whole entry): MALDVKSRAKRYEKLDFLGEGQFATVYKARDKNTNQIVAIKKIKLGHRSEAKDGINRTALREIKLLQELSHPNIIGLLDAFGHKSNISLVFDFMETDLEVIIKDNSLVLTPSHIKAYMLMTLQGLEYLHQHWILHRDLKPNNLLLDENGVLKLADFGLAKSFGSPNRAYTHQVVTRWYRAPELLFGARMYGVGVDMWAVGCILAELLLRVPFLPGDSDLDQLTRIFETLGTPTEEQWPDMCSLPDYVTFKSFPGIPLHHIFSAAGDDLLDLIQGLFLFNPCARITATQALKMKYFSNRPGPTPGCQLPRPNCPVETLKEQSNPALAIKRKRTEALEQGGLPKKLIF
Sequence of CDK7/Cyclin H/MNAT1 (P51948 whole entry, further chain): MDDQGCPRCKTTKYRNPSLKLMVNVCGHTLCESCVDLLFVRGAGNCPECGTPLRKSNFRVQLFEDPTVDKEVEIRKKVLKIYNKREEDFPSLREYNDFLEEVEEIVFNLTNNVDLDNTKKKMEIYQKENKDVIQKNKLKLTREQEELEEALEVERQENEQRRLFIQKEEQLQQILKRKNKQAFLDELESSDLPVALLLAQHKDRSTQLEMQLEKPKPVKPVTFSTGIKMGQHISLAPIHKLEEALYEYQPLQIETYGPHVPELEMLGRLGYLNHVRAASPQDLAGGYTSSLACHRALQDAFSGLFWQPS
Sequence of Cyclin-dependent kinase 5/CDK5 activator 1 (Q00535 whole entry): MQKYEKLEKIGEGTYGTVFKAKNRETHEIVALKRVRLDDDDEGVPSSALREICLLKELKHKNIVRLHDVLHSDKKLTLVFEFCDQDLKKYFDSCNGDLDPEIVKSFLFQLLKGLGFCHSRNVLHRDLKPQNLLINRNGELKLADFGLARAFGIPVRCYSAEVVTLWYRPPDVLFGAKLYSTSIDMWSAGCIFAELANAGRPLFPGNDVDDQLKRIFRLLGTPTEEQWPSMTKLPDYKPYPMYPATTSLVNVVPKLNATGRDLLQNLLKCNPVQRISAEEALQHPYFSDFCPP
Sequence of Cyclin-dependent kinase 5/CDK5 activator 1 (Q15078 whole entry, further chain): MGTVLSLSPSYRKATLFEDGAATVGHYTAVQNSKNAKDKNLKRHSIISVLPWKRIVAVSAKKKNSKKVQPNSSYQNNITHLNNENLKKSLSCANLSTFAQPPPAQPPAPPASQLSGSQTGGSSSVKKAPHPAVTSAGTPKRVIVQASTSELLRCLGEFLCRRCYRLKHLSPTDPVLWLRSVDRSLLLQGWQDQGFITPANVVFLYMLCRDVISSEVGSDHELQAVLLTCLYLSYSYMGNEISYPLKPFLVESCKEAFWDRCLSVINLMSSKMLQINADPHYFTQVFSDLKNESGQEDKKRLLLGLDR
Sequence of Cyclin-dependent kinase 1/cyclin B1 (P06493 whole entry): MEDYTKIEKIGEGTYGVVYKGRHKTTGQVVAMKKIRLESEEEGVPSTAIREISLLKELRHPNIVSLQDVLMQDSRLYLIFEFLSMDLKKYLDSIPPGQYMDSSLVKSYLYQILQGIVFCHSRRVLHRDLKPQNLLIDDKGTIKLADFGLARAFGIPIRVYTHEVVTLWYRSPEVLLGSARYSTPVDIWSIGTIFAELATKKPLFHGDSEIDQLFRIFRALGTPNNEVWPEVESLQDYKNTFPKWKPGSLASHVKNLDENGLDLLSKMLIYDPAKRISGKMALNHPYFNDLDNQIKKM
Sequence of Cyclin-dependent kinase 1/cyclin B1 (P14635 whole entry, further chain): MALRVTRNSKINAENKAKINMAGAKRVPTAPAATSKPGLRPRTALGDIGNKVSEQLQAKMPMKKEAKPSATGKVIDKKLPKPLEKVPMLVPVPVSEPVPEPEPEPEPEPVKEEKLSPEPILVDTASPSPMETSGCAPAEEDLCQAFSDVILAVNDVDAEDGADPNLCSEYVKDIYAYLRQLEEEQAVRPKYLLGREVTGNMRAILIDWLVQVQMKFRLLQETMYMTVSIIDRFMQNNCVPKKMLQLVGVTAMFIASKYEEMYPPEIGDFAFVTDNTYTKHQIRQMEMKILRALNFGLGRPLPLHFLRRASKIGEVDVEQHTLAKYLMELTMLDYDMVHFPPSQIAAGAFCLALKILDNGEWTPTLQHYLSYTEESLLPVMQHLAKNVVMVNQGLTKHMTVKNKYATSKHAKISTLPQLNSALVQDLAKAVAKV
Sequence of CDK9/cyclin T1 (O60563 whole entry): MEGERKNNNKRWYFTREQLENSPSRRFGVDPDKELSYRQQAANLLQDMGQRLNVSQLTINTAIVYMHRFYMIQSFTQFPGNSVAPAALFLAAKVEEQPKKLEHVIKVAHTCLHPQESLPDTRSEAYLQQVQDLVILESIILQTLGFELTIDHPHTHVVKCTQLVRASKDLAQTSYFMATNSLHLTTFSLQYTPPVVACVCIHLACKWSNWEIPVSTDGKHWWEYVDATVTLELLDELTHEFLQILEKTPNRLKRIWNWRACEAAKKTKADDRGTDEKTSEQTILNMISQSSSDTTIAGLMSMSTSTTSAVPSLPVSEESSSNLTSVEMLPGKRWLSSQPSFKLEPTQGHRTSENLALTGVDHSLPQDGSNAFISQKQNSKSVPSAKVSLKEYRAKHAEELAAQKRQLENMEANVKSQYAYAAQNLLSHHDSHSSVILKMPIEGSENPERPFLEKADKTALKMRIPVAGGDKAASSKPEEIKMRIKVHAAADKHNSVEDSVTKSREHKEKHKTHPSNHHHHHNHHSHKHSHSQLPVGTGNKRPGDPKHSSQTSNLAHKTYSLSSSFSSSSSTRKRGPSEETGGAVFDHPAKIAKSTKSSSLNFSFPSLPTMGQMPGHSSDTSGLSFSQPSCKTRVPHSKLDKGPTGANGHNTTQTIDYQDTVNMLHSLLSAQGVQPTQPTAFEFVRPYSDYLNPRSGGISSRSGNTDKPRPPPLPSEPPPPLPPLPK
Sequence of CDK9/cyclin T1 (P50750 whole entry): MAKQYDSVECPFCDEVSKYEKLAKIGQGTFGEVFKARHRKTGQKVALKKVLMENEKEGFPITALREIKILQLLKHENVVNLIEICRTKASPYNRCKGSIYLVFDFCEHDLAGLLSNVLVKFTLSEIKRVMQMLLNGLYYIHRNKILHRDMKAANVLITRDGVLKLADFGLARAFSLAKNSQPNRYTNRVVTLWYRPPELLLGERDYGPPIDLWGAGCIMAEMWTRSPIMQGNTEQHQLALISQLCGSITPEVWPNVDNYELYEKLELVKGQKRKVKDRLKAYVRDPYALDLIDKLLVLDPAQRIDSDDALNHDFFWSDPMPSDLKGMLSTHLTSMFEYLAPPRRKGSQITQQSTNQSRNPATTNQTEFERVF
Sequence of Cyclin-dependent kinase 4/cyclin D1 (P11802 whole entry): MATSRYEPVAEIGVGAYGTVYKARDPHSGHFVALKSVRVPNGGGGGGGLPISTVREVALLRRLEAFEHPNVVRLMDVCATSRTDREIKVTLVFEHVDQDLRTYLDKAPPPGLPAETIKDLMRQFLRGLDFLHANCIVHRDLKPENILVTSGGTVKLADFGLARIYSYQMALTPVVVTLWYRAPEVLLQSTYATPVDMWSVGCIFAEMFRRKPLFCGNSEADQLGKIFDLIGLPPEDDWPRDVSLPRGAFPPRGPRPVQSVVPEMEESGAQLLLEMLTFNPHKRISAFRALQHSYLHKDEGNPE
Sequence of Cyclin-dependent kinase 4/cyclin D1 (P24385 whole entry, further chain): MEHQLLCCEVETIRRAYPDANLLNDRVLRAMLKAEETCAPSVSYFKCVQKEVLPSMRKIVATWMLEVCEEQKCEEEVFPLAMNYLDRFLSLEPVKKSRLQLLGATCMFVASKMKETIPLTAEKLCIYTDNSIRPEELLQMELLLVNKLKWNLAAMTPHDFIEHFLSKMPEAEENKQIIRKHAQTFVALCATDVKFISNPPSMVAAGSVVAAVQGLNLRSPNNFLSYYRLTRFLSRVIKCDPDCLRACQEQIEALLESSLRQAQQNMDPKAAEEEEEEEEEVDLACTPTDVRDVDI
T1 sequence (Q00535 whole entry): as the sequence (Q00535 whole entry) above
T1 sequence (Q15078 99-307 partner limits assumed): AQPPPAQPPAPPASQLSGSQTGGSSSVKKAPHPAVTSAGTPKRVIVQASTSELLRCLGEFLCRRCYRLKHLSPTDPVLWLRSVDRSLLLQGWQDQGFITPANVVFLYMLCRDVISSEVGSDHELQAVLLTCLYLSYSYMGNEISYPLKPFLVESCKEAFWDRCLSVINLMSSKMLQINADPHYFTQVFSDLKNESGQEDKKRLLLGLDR
Sequence of Cyclin-dependent kinase 9 (Homo sapiens) (P50750 whole entry): as the sequence (P50750 whole entry) above
Sequence of Cyclin-dependent kinase 7 (Homo sapiens) (P50613 whole entry): as the sequence (P50613 whole entry) above
Sequence of Cyclin-dependent kinase 4 (Homo sapiens) (P11802 whole entry): as the sequence (P11802 whole entry) above

| Structure (SMILES) | IC50 (CDK7/Cyclin H/MNAT1) [µM] | IC50 [1] [nM] | IC50 (CDK9/cyclin T1) [µM] | IC50 [4] [nM] | IC50 [5] [nM] | IC50 [7] [nM] | IC50 (CDK2/Cyclin A2) [nM] | also measured |
| --- | --- | --- | --- | --- | --- | --- | --- | --- |
| CCNc1cc(N[C@H]2CC[C@H](O)CC2)nc(Nc2ccc3c(ccn3Cc3ccccc3)c2)n1 | > 10 | > 10000 | > 10 |  |  |  |  | Activity (HCT-116 [2]): Active; Activity (HCT-116 [3]): 30 - 60% |
| CCOC(=O)c1cnc2oc3ccc(O)cc3c2c1-c1ccccc1 | > 20 | > 20000 | > 20 | > 20000 | > 20000 | 14300 | 7100 | Activity (HCT-116 [6]): inactive |
| Nc1nc(Nc2ccc(S(N)(=O)=O)cc2)nn1C(=S)Nc1c(F)cccc1F | 0.066 | 0.2 | 0.03 | 2 | 59 |  |  | Activity (HCT-116 [8]): Active; inhibition [9]: Active; Activity (HCT-116 [10]): >=60%; inhibition [11]: inactive; inhibition [12]: inactive |
| CN1CCN(c2ccc(Nc3ncc4cc(C#N)c(=O)n(C5CCCC5)c4n3)cc2)CC1 [NARAZACICLIB] | 6 | 272 | 0.117 | 600 | 18 | 377 | 55 | Activity (HCT-116 [13]): >=60%; Activity (HCT-116 [14]): Active |
| CCCOc1cnc(CN/C=C2\C(=O)NC(=O)c3ccc(I)cc32)cc1O | > 20 | 1200 | 1 | 290 | 38 | 501 | 71 | Activity (HCT-116 [15]): <=30%; inhibition [16]: Active; inhibition [17]: Active |
| Nc1n[nH]c2nc3ccccc3nc12 [QUINOXALINE1] | > 20 | 13700 | 14.1 | 9700 | > 20000 | 5600 | 10 | Activity (HCT-116 [18]): inactive |
| COc1ccc(CNc2nc(N(CCO)CCO)nc3c2ncn3C(C)C)cc1 | 9.2 | 419 | 2.3 | 3700 | > 20000 |  |  | Activity (HCT-116 [19]): <=30% |
| O=C1NC(=O)c2c1c1c3ccccc3[nH]c1c1[nH]c3ccccc3c21 [STAUROSPORINE AGLYCON] | > 20 | 936 | > 20 | 964 | 199 |  | 135 | Activity (HCT-116 [20]): >=60%; Activity (HCT-116 [21]): Active |
| CN(C)C(=O)c1cc2cnc(Nc3ccc(N4CCNCC4)cn3)nc2n1C1CCCC1 [RIBOCICLIB] | > 20 | > 20000 |  |  |  |  |  |  |
| CCn1cnc2c(Nc3cccc(Cl)c3)nc(N[C@@H]3CCCC[C@@H]3N)nc21 | 0.279 | 26 | 1.4 | 147 | 3000 | 26 | 46 | Activity (HCT-116 [22]): <=30% |
| CNC(=O)c1nn(C)c2c1C(C)(C)Cc1cnc(Nc3ccc(N4CCN(C)CC4)cc3)nc1-2 [MILCICLIB] |  |  |  | 1200 |  | 590 | 109 | Activity (HCT-116 [19]): 30 - 60% |
| CC(C)c1cnc(NC(=O)Cc2ccccc2)s1 | 0.637 | 458 | 3.4 | 1700 | 20400 | 195 | 353 | Activity (HCT-116 [23]): Active; Activity (HCT-116 [24]): <=30%; Activity (HCT-116 [8]): Active; Activity (HCT-116 [25]): Active; Activity (HCT-116 [26]): Active; inhibition [27]: Active |
| O=C1Nc2ccc3ncsc3c2/C1=C/Nc1ccc(S(=O)(=O)Nc2ccccn2)cc1 | 0.317 | 7 |  | 49 | 139 |  |  | Activity (HCT-116 [19]): 30 - 60% |
| COc1ccc(OC)c2c(=S)c3ccccc3[nH]c12 | > 20 | > 20000 | > 20 | > 20000 | > 20000 | > 20000 | > 20000 | Activity (HCT-116 [28]): Active |
| COc1ccc2c(c1)/C(=C/c1cnc[nH]1)C(=O)N2 [SU-9516] |  |  |  |  |  |  |  | Activity (HCT-116 [29]): Active; Activity (HCT-116 [19]): 30 - 60%; Activity (HCT-116 [30]): Active |
| CC(=O)c1cnc2oc3ccc(O)cc3c2c1-c1ccccc1 | > 20 | 17500 | > 20 | > 20000 | > 20000 | > 20000 | > 20000 | Activity (HCT-116 [6]): inactive |
| O=C1Nc2ccccc2/C1=C\c1c(Cl)[nH]c2ccccc12 | 16 | 5800 | > 20 | 6700 | > 20000 | 9400 | 13200 | IC50 (Aurora kinase A): > 20 µM; IC50 (Aurora kinase B): 15.6 µM; Activity (HCT-116 [31]): >=60% |
| Nc1cc(Nc2ccc(S(N)(=O)=O)cc2)ncn1 | > 20 | 4400 | > 20 | 5300 | > 20000 | 1900 | 946 | Activity [12]: inactive |
| O=C1NC(=O)c2c1c1c3ccccc3[nH]c1c1[nH]c3cc(Br)ccc3c21 | > 20 | 154 | 4 | 1500 | 91 | 229 | 185 | Activity (HCT-116 [32]): Active; Activity (HCT-116 [33]): <=30% |
| O=C1Nc2cc(Br)ccc2/C1=C1/Nc2ccccc2/C1=N\O [6BIO] | 3.5 |  | 0.45 |  |  |  |  | Activity (HCT-116 [3]): <=30% |
